Assay: Xenon light resistance test, ink of Example 18 (Table 58)
Type: physicochemical
Details: for each glossy paper (Table 58)
Protocol: An ink of Example 18 was prepared as in Example 1 except that the compound represented by the above formula (200) was used instead of the compound represented by the above formula (101).
Ink-jet recording was performed with an ink-jet printer (Canon, Inc., Product name: PIXUS ip7230) to allow each of the inks from Example 18 and Comparative Examples 1, 2 above to be attached on the following glossy papers 1 to 4. Upon performing recording, image patterns were created so that the density can be obtained in a gradation of 6 levels: 100%, 85%, 70%, 55%, 40%, and 25% to obtain a half-tone recorded article. The resulting recorded article was used as a test piece to perform the following tests.
Glossy paper 1: Canon, Inc., Product name: Canon Photograph paper, platinum grade (PT-201)
Glossy paper 2: Seiko Epson Corporation, Product name: Photograph paper Crispia
Glossy paper 3: Brother Industries, Ltd., Product name: BP71G
Glossy paper 4: FUJIFILM Corporation, Product name: Gasai Photo-finishing Pro
When required, color measurements of a recorded image were performed using a colorimeter (Product name SpectroEye from X-rite, Inc.). Color measurements were performed under the conditions of a density standard of DIN NB, a wide viewing angle of 2 degrees, a light source of D65. […]

light resistance tests, results compared with Comparative Examples 1, 2: better results
SMILES: O=S(=O)(O)CCCOc1cc(N=Nc2ccc(Cl)c(S(=O)(=O)O)c2)c(Cl)cc1Nc1nc(Nc2cc(Cl)c(N=Nc3ccc(Cl)c(S(=O)(=O)O)c3)cc2OCCCS(=O)(=O)O)nc(N2CCN(c3nc(Nc4cc(Cl)c(N=Nc5ccc(Cl)c(S(=O)(=O)O)c5)cc4OCCCS(=O)(=O)O)nc(Nc4cc(Cl)c(N=Nc5ccc(Cl)c(S(=O)(=O)O)c5)cc4OCCCS(=O)(=O)O)n3)CC2)n1 [Example 18]
